# Assay results: ChEMBL document CHEMBL1135777, “Three-dimensional quantitative structure-activity relationships of mazindol analogues at the dopamine transporter” (J Med Chem, 2002)
# Target: Sodium-dependent dopamine transporter (Rattus norvegicus, UniProt P23977)
# Assay: Ability to displace [3H]WIN-35428 from dopamine transporter in rat caudate putamen tissue
# Assay type: tissue-based
# Sequence of Sodium-dependent dopamine transporter (P23977 whole entry): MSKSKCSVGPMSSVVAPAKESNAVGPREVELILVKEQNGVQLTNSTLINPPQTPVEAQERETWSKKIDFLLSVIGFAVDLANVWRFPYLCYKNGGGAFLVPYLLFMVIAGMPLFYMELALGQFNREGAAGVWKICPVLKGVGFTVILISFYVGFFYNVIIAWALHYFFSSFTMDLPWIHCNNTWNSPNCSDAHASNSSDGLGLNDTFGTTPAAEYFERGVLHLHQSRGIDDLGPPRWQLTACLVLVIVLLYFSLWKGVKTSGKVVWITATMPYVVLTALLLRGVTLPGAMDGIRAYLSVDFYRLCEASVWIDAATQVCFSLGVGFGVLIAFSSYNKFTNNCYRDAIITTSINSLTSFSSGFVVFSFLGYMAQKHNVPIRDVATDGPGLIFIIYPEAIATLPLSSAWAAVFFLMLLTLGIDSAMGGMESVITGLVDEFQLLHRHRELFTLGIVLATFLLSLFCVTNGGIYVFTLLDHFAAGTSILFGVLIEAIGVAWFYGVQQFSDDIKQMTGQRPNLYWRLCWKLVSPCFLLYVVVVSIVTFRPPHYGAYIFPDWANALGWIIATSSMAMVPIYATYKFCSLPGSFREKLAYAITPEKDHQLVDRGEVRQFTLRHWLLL
row,SMILES,IC50
1,OC1(c2ccc(CN3CCCCC3)cc2)c2ccccc2C2=NCCCN21 (configuration not stated),1200 nM
2,O=C(c1ccc(Cl)cc1)c1ccccc1-c1ncc[nH]1,2800 nM
3,COc1ccc(C2(O)c3ccccc3C3=NCCCN32)cc1OC (configuration not stated),87 nM
4,OC1(c2ccc(Cl)cc2)c2ccccc2C2=NCCCN21 (configuration not stated),1 nM
5,Oc1ccc(C2(O)c3ccccc3C3=NCCCN32)cc1 (configuration not stated),3.4 nM
6,OC1(c2cccnc2)c2ccccc2C2=NCCN21 (configuration not stated),640 nM
7,[O-][S+](c1ccc(Cl)cc1)c1ccccc1C1=NCCN1 (configuration not stated),7300 nM
8,OC1(c2ccc(C(F)(F)F)cc2)c2ccccc2C2=NCCN21 (configuration not stated),290 nM
9,CN(C)Cc1ccc(C2(O)c3ccccc3C3=NCCN32)cc1 (configuration not stated),2800 nM
10,COC(=O)c1ccc(C2(O)c3ccccc3C3=NCCN32)cc1 (configuration not stated),3300 nM
11,Clc1ccc(Sc2ccccc2C2=NCCN2)cc1,320 nM
12,OC1(c2ccc3ccccc3c2)c2ccccc2C2=NCCN21 (configuration not stated),23 nM
13,Cn1ccnc1-c1ccccc1C(=O)c1ccc(Cl)cc1,4300 nM
14,OC1(c2ccccn2)c2ccccc2C2=NCCN21 (configuration not stated),3700 nM
15,COc1ccc(C2(O)c3ccccc3C3=NCCCN32)cc1 (configuration not stated),2.5 nM
16,OC1(c2cccc(C(F)(F)F)c2)c2ccccc2C2=NCCN21 (configuration not stated),230 nM
17,O=S(=O)(c1ccc(Cl)cc1)c1ccccc1C1=NCCN1,6500 nM
18,OC1(c2ccc(Cl)cc2)c2ccc3ccccc3c2C2=NCCN21 (configuration not stated),16 nM
19,CC1(C)COC(c2ccc(C(=O)c3ccc(Cl)cc3)cc2)=N1,1900 nM
20,OC1(C/C=C/c2ccccc2)c2ccccc2C2=NCCN21 (configuration not stated),9300 nM
21,OC1(C23C[C@H]4C[C@@H](C2)C[C@@H](C3)C4)c2ccccc2C2=NCCN21 (some centres not stated),4900 nM

row,SMILES,IC50
1,OC1(c2ccc(Cl)cc2)c2cccc3cccc(c23)C2=NCCCN21 (configuration not stated),42 nM
2,O=C(c1ccc(Cl)cc1)c1cccc(C2=NCCN2)c1,2200 nM
3,Clc1ccc(Oc2ccccc2C2=NCCN2)cc1,190 nM
4,OC1(c2ccc(Cl)cc2)c2ccccc2C2=N[C@@H]3CCCC[C@H]3N21 (some centres not stated),34 nM
5,OC1(c2ccc(Cl)cc2)c2ccc3ccccc3c2C2=NCCCN21 (configuration not stated),37 nM
6,OC1CN=C2c3ccccc3C(O)(c3ccc(Cl)cc3)N2C1 (configuration not stated),10 nM
7,CC1(C2(O)c3ccccc3C3=NCCN32)CCCCC1 (configuration not stated),3500 nM
8,Clc1ccc(Cc2ccccc2C2=NCCN2)cc1,4000 nM
9,CC1(C)COC(c2ccccc2C(=O)c2ccc(Cl)cc2)=N1,560 nM
10,COc1ccc(C2(O)c3ccccc3C3=NCCN32)cc1OC (configuration not stated),6900 nM
11,OC1(c2ccncc2)c2ccccc2C2=NCCN21 (configuration not stated),63 nM
12,CC(C)(C)C1(O)c2ccccc2C2=NCCN21 (configuration not stated),9500 nM
13,OC(c1ccc(Cl)cc1)c1ccc(C2=NCCN2)cc1 (configuration not stated),1600 nM
14,C=CCOc1ccc(C2(O)c3ccccc3C3=NCCCN32)cc1 (configuration not stated),72 nM
15,Cc1ccc(C2(O)c3ccccc3C3=NCCN32)cc1 (configuration not stated),93 nM
16,OC1(c2ccc3ccccc3c2)c2ccc3ccccc3c2C2=NCCN21 (configuration not stated),38 nM
17,OC1(c2ccc(COc3ccccc3)cc2)c2ccccc2C2=NCCN21 (configuration not stated),720 nM
18,CC1(C)COC(c2cccc(C(O)c3ccc(Cl)cc3)c2)=N1 (configuration not stated),16000 nM
19,OC1(c2ccc(OCc3ccccc3)cc2)c2ccccc2C2=NCCCN21 (configuration not stated),100 nM
20,OC(c1ccc(Cl)cc1)c1ccccc1C1=NCCN1 (stereo in doubt; 53),190 nM
21,OC(c1ccc(Cl)cc1)c1ccccc1C1=NCCN1 (stereo in doubt; 54),2700 nM
